Drawing on ChEMBL document CHEMBL2029209, “Structure-based design of 2,6,7-trisubstituted-7H-pyrrolo[2,3-d]pyrimidines as Aurora kinases inhibitors” (Bioorg Med Chem Lett, 2012), this text covers Activity and IC50 for 15 compounds.

Assay [1] deals with HCT-116. Briefly: Induction of cell cycle arrest in human HCT116 cells assessed as minimum concentration required for G2/M versus G1 peak ratio over 2. In kind it is functional.
In assay [2] the target is Cyclin-dependent kinase 1 (Homo sapiens, UniProt P06493). Briefly: Inhibition of CDK1.
Cyclin-dependent kinase 1, sequence (P06493 whole entry): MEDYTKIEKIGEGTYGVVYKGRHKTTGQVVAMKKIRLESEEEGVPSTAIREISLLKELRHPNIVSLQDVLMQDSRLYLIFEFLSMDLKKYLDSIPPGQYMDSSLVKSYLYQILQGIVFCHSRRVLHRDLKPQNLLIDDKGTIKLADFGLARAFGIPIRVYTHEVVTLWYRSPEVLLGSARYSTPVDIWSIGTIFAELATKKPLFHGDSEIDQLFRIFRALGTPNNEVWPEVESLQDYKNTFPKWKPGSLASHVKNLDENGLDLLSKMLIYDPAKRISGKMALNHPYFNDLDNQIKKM
The test system of assay [3] is HCT-116. The assay can be described thus: Antiproliferative activity against human HCT116 cells. In kind it is functional, cell-based.
The next assay concerns the target T1, Aurora kinase A (Homo sapiens, UniProt O14965).
T1 sequence (O14965 whole entry): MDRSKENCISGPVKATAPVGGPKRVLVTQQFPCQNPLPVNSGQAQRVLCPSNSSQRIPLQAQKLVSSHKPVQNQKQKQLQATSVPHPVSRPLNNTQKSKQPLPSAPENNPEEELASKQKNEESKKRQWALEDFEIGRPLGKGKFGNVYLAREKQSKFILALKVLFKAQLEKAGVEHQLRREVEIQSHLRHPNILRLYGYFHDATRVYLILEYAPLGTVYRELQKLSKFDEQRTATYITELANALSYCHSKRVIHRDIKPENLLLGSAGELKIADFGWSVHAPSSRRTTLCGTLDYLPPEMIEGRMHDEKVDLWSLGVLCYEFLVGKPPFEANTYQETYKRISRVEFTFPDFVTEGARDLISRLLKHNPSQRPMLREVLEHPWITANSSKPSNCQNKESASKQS
Briefly: Inhibition of aurora A kinase.

For a further assay, the target named is Aurora kinase B (Homo sapiens, UniProt Q96GD4). The assay can be described thus: Inhibition of aurora B kinase.
Aurora kinase B, sequence (Q96GD4 whole entry): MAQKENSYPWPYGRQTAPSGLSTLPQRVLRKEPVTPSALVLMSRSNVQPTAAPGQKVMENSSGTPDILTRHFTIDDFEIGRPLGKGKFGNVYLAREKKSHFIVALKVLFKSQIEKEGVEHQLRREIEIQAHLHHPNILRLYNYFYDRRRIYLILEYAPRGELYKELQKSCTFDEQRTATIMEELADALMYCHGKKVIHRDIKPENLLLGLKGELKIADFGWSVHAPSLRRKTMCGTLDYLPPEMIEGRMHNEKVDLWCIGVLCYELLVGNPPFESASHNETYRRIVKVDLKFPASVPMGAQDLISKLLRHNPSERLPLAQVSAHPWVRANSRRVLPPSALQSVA

The IC50 is the concentration needed to halve the response being measured. The low end stands for greater potency, the high end for weaker potency. For `CN1CCN(C(=O)c2cc(Nc3ncc4cc(C#N)n(C5CCCC5)c4n3)cn2C)CC1`, the Activity with HCT-116 [1] was 0.065 µM. The IC50 was 6 nM in assay [2], 40 nM in the assay with HCT-116 [3], 7.5 nM against Aurora kinase A and 4 nM against Aurora kinase B.

Regarding `CN1CCN(C(=O)c2cc(Nc3ncc4cc(-c5cnn(Cc6ccccc6)c5)n(C5CCCC5)c4n3)cn2C)CC1`, the Activity in the assay on HCT-116 [1] amounted to 0.1 µM. Also, the IC50 in assay [2] worked out at 2000 nM; in the assay with HCT-116 [3] it was 90 nM; against Aurora kinase A, 2 nM; against Aurora kinase B, 4 nM.

As to `CC(O)c1cc2cnc(Nc3cc(C(=O)N4CCN(C)CC4)n(C)c3)nc2n1C1CCCC1` (configuration not stated), the Activity in the assay with HCT-116 [1] turned out to be 0.1 µM. The IC50 worked out at 1100 nM in assay [2], 80 nM in the assay with HCT-116 [3], 11 nM at Aurora kinase A and 30 nM at Aurora kinase B.

With `CN1CCN(C(=O)c2cc(Nc3ncc4cc(-c5cnco5)n(C5CCCC5)c4n3)cn2C)CC1`, in the assay with HCT-116 [1], the Activity was 0.03 µM. Further, the IC50 in assay [2] was 28 nM; in the assay on HCT-116 [3], 60 nM; on Aurora kinase A, 2 nM; against Aurora kinase B, 4 nM.

As to `CN1CCN(C(=O)c2cc(Nc3ncc4cc(CO)n(C5CCCC5)c4n3)cn2C)CC1`, the Activity with HCT-116 [1] was found to be 0.1 µM. The IC50 in assay [2] stood at 1300 nM; in the assay on HCT-116 [3], 130 nM; on Aurora kinase A, 20 nM; against Aurora kinase B it was 40 nM.

With `CN1CCN(C(=O)c2cc(Nc3ncc4cc(C(N)=O)n(C5CCCC5)c4n3)cn2C)CC1`, the Activity in the assay on HCT-116 [1] is 0.1 µM. In addition, the results for the IC50 (in assay [2]; in the assay on HCT-116 [3]; on Aurora kinase B) were 500 nM, 70 nM and 11 nM, respectively.

For the compound `Cc1c(-c2cc3cnc(Nc4cc(C(=O)N5CCN(C)CC5)n(C)c4)nc3n2C2CCCC2)cnn1C`, in the assay on HCT-116 [1], the Activity worked out at 0.03 µM. Besides, the IC50 came out at 330 nM in assay [2], 110 nM with HCT-116 [3], 2 nM against Aurora kinase A and 4 nM on Aurora kinase B.

For the compound `CN1CCN(C(=O)c2cc(Nc3ncc4cc(C(=O)O)n(C5CCCC5)c4n3)cn2C)CC1`, the Activity with HCT-116 [1] amounted to 10 µM. Besides, the IC50 in assay [2] was 10000 nM; in the assay with HCT-116 [3], 12300 nM; on Aurora kinase A it was 350 nM; against Aurora kinase B, 1000 nM.

Take `CN1CCN(C(=O)c2cc(Nc3ncc4ccn(C5CCCC5)c4n3)cn2C)CC1`: the Activity in the assay with HCT-116 [1] stood at 0.3 µM. The IC50 was found to be 240 nM in assay [2], 290 nM in the assay with HCT-116 [3], 38 nM at Aurora kinase A and 18 nM against Aurora kinase B.

`CC(C)CCn1cc(-c2cc3cnc(Nc4cc(C(=O)N5CCN(C)CC5)n(C)c4)nc3n2C2CCCC2)cn1`: in the assay on HCT-116 [1], the Activity worked out at 0.1 µM. Besides, the IC50 in assay [2] worked out at 1400 nM; with HCT-116 [3], 110 nM; at Aurora kinase A, 2 nM; against Aurora kinase B it was 4 nM.

Turning to `CN1CCN(C(=O)c2cc(Nc3ncc4cc(-c5cncn5C)n(C5CCCC5)c4n3)cn2C)CC1`, the Activity with HCT-116 [1] came to 0.003 µM. Also, the IC50 in assay [2] stood at 200 nM; in the assay with HCT-116 [3], 5 nM; against Aurora kinase A, 2 nM; on Aurora kinase B, 5 nM.

On to `CN1CCN(C(=O)c2cc(Nc3ncc4cc(-c5cnn(C)c5)n(C5CCCC5)c4n3)cn2C)CC1`, for which the Activity in the assay on HCT-116 [1] stood at 0.03 µM. For the same compound, the results for the IC50 (in assay [2]; on Aurora kinase A; at Aurora kinase B) were 180 nM, 2 nM and 4 nM, respectively.

In the case of `CN1CCN(C(=O)c2cc(Nc3ncc4cc(/C=N/O)n(C5CCCC5)c4n3)cn2C)CC1`, the Activity in the assay with HCT-116 [1] came to 0.002 µM. Further, the IC50 was 3 nM in assay [2], 4 nM with HCT-116 [3], 11 nM on Aurora kinase A and 30 nM on Aurora kinase B.

With `CNCc1cc2cnc(Nc3cc(C(=O)N4CCN(C)CC4)n(C)c3)nc2n1C1CCCC1`, the Activity in the assay on HCT-116 [1] was 0.3 µM. Moreover, the IC50 in assay [2] came out at 700 nM; in the assay with HCT-116 [3], 210 nM; against Aurora kinase A it was 40 nM; on Aurora kinase B, 60 nM.

Regarding `CN1CCN(C(=O)c2cc(Nc3ncc4cc(-c5ccnn5C)n(C5CCCC5)c4n3)cn2C)CC1`, the Activity in the assay on HCT-116 [1] is 1 µM. Further, the IC50 in assay [2] is 1700 nM; with HCT-116 [3], 590 nM; on Aurora kinase B, 4 nM.
